Assay results taken from patent US20240059677A1, “SUBSTITUTED PYRIMIDINE DERIVATIVES AS NICOTINIC ACETYLCHOLINESTERASE RECEPTOR ALPHA 6 MODULATOR” (priority 2020, published 2024).

These molecules were tested against T1, human nAChRα6-α3 chimera, in addition to β2 and β3^V273S subunits (Homo sapiens, UniProt P32297+Q15825) (assay: fluorescence-based calcium assay: inhibition of nicotine stimulated nAChRα6 activity (FLIPR)). Details: HEK cell line stably expressing the receptor; 10 min pre-incubation, nicotine EC80; 10-point curve, duplicate wells; read-out: IC50.
T1 construct: expressed in transfected cells
Experimental: The ability of the test compounds to inhibit nicotine stimulated nAChRα6 activity was determined in a fluorescence-based calcium assay. Compound activity was determined using a HEK cell line stably expressing a human nAChRα6-α3 chimera, in addition to β2 and β3^V273S subunits (as in Capelli et al, Br J Pharmacol 163(2): 313-29 2011). In this cell line, nicotine stimulated an increase in intracellular calcium concentration, measured as an increase in fluorescence when cells were incubated with a calcium sensitive dye. Test compounds were pre-incubated with cells prior to nicotine stimulation to detect any reduction in the magnitude of the nicotine response.
The day prior to the assay, compounds were serially diluted in DMSO (200× final assay concentration (FAC)), in 384-well plates which were then stored in the dark at room temperature (RT) until use. Cells were seeded at 20 k/well in black, poly-D-lysine coated, clear bottom 384-well plates and incubated for 4 hours at 37° C., followed by overnight incubation at 30° C. The following day, the DMSO compound plate was diluted 1:20 (10×FAC) in assay buffer (HEPES buffered saline solution with 10 mM HEPES, 0.1% bovine serum albumin, 1 mM probenecid). A nicotine solution was prepared in assay buffer (7×FAC) and dispensed into a 384-well plate. The growth media was removed from the cell plate, replaced with 53 μl calcium dye/well (Calcium 5; Molecular Devices) and the plate incubated at 30° C. for 45 minutes. Test compounds were then added to the cells (7 μl of 10×FAC) and incubated for 10 minutes, after which nicotine EC80 (10 μl of 7×FAC) was added and changes in fluorescence measured using a FLIPR plate reader (Molecular Devices).
Compound activity was examined using a 10-point, half-log concentration-response range and each concentration was tested in duplicate wells.

T1 sequence (Q05901 25-458 V273S): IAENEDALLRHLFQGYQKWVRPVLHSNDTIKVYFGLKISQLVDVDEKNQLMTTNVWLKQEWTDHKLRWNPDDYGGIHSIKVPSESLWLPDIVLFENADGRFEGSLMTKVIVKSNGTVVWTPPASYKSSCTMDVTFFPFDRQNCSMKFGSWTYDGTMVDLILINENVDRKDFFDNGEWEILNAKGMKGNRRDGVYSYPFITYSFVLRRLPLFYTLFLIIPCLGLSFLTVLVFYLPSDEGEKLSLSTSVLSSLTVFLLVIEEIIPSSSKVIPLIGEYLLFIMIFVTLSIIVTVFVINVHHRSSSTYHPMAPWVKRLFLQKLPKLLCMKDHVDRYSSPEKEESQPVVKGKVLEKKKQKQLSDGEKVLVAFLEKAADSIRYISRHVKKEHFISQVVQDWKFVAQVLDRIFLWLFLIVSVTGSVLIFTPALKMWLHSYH
T1 sequence (P17787 26-502, stated change not applied, further chain): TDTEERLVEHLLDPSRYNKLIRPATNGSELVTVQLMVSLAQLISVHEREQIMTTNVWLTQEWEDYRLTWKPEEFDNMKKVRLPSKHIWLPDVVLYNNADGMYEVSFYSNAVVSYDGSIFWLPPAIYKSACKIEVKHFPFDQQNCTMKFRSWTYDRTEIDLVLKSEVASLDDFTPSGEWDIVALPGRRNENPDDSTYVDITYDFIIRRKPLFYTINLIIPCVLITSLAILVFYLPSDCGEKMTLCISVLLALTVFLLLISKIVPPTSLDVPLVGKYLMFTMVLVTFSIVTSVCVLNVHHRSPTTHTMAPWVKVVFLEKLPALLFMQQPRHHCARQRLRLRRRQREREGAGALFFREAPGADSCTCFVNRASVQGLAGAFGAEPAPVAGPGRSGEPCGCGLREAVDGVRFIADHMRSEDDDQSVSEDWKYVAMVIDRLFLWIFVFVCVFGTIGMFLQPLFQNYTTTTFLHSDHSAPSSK
T1 sequence (Q15825+P32297 fused with the stated changes): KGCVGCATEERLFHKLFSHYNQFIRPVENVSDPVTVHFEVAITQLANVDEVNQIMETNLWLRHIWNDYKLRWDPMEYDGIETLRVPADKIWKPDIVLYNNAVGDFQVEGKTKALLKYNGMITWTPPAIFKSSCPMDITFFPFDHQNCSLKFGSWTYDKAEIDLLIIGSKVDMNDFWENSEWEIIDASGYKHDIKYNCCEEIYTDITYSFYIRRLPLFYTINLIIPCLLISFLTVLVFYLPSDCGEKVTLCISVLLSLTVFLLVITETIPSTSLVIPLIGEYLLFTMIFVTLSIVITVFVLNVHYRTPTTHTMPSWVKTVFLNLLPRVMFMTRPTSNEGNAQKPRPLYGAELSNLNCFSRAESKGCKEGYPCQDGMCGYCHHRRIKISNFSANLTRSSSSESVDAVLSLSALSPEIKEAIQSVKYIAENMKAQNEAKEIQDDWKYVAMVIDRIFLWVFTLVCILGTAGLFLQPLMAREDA

SMILES	IC50 [nM]
Cc1nc(NC2CCN3CCCC23)ncc1-c1ccc(F)cc1F (single isomer, unassigned) [Example 86a, N-(5-(2,4-difluorophenyl)-4-methyl-pyrimidin-2-yl)hexahydro-1H-pyrrolizin-1-amine]	122
Cc1nc(NC2CCN3CCCC23)ncc1-c1ccc(F)cc1F (single isomer, unassigned) [Example 86b, N-(5-(2,4-difluorophenyl)-4-methyl-pyrimidin-2-yl)hexahydro-1H-pyrrolizin-1-amine]	126
Cc1nc(NCC2C(F)CCN2C)ncc1-c1ccc(F)cc1F (single isomer, unassigned) [Example 96a, 5-(2,4-difluorophenyl)-N-((3-fluoro-1-methylpyrrolidin-2-yl)methyl)-4-methyl-pyrimidin-2-amine]	151
Cc1nc(NCC2C(F)CCN2C)ncc1-c1ccc(F)cc1F (single isomer, unassigned) [Example 96b, 5-(2,4-difluorophenyl)-N-((3-fluoro-1-methylpyrrolidin-2-yl)methyl)-4-methyl-pyrimidin-2-amine]	99
Cc1nc(NC2CCN3CCCC23)ncc1-c1ccc(OC(F)(F)F)cc1F (single isomer, unassigned) [Example 97a, N-(5-(2-fluoro-4-(trifluoromethoxy)phenyl)-4-methyl-pyrimidin-2-yl)hexahydro-1H-pyrrolizin-1-amine]	184
Cc1nc(NC2CCN3CCCC23)ncc1-c1ccc(OC(F)(F)F)cc1F (single isomer, unassigned) [Example 97b, N-(5-(2-fluoro-4-(trifluoromethoxy)phenyl)-4-methyl-pyrimidin-2-yl)hexahydro-1H-pyrrolizin-1-amine]	152
Cc1nc(NC2CCN3CCCC23)ncc1-c1ccc(OC(F)(F)F)cc1F (single isomer, unassigned) [Example 97c, N-(5-(2-fluoro-4-(trifluoromethoxy)phenyl)-4-methyl-pyrimidin-2-yl)hexahydro-1H-pyrrolizin-1-amine]	180
Cc1nc(NC2CCN3CCCC23)ncc1-c1ccc(OC(F)(F)F)cc1F (single isomer, unassigned) [Example 97d, N-(5-(2-fluoro-4-(trifluoromethoxy)phenyl)-4-methyl-pyrimidin-2-yl)hexahydro-1H-pyrrolizin-1-amine]	299
Cc1nc(NC[C@@H]2CN(C)CCO2)ncc1-c1ccc(C(F)(F)F)cc1F (single isomer, unassigned) [Example 108a]	86
Cc1nc(NC[C@H]2CN(C)CCO2)ncc1-c1ccc(C(F)(F)F)cc1F (single isomer, unassigned) [Example 108b]	77
Cc1nc(NC(C)[C@H]2CCCN2)ncc1-c1ccc(C(F)(F)F)cc1F (single isomer, unassigned) [Example 129a, 5-(2-fluoro-4-(trifluoromethyl)phenyl)-4-methyl-N-((1*R)-1-((2R)-pyrrolidin-2-yl)ethyl)pyrimidin-2-amine]	65
Cc1nc(NC(C)[C@H]2CCCN2)ncc1-c1ccc(C(F)(F)F)cc1F (single isomer, unassigned) [Example 129b, 5-(2-fluoro-4-(trifluoromethyl)phenyl)-4-methyl-N-((1*S)-1-((2R)-pyrrolidin-2-yl)ethyl)pyrimidin-2-amine]	105
Cc1nc(NC(C)[C@@H]2CCCN2)ncc1-c1ccc(C(F)(F)F)cc1F (single isomer, unassigned) [Example 130a, 5-(2-fluoro-4-(trifluoromethyl)phenyl)-4-methyl-N-((1*R)-1-((2S)-pyrrolidin-2-yl)ethyl)pyrimidin-2-amine]	118
Cc1nc(NC(C)[C@@H]2CCCN2)ncc1-c1ccc(C(F)(F)F)cc1F (single isomer, unassigned) [Example 130b, 5-(2-fluoro-4-(trifluoromethyl)phenyl)-4-methyl-N-((1*S)-1-((2S)-pyrrolidin-2-yl)ethyl)pyrimidin-2-amine]	49
Cc1nc(NC(C)[C@H]2CCCN2C)ncc1-c1ccc(C(F)(F)F)cc1F (single isomer, unassigned) [Example 131a, 5-(2-fluoro-4-(trifluoromethyl)phenyl)-4-methyl-N-((1*R)-1-((2R)-1-methylpyrrolidin-2-yl)ethyl)pyrimidin-2-amine]	172
Cc1nc(NC(C)[C@H]2CCCN2C)ncc1-c1ccc(C(F)(F)F)cc1F (single isomer, unassigned) [Example 131b, 5-(2-fluoro-4-(trifluoromethyl)phenyl)-4-methyl-N-((1*S)-1-((2R)-1-methylpyrrolidin-2-yl)ethyl)pyrimidin-2-amine]	291
Cc1nc(NC(C)[C@@H]2CCCN2C)ncc1-c1ccc(C(F)(F)F)cc1F (single isomer, unassigned) [Example 132a, 5-(2-fluoro-4-(trifluoromethyl)phenyl)-4-methyl-N-((1*R)-1-((2S)-1-methylpyrrolidin-2-yl)ethyl)pyrimidin-2-amine]	92
Cc1nc(NC(C)[C@@H]2CCCN2C)ncc1-c1ccc(C(F)(F)F)cc1F (single isomer, unassigned) [Example 132b, 5-(2-fluoro-4-(trifluoromethyl)phenyl)-4-methyl-N-((1*S)-1-((2S)-1-methylpyrrolidin-2-yl)ethyl)pyrimidin-2-amine]	97
Cc1nc(NC[C@H]2NCC[C@@H]2F)ncc1-c1ccc(C(F)(F)F)cc1F (single isomer, unassigned) [Example 133a, 5-(2-fluoro-4-(trifluoromethyl)phenyl)-N-(((2*S,3*R)-3-fluoropyrrolidin-2-yl)methyl)-4-methyl-pyrimidin-2-amine]	305
Cc1nc(NC[C@H]2NCC[C@@H]2F)ncc1-c1ccc(C(F)(F)F)cc1F (single isomer, unassigned) [Example 133b, 5-(2-fluoro-4-(trifluoromethyl)phenyl)-N-(((2*R,3*S)-3-fluoropyrrolidin-2-yl)methyl)-4-methyl-pyrimidin-2-amine]	300
Cc1nc(NCC2CCC(C)N2C)ncc1-c1ccc(C(F)(F)F)cc1F (single isomer, unassigned) [Example 138a, N-(((2*R,5*R)-1,5-dimethylpyrrolidin-2-yl)methyl)-5-(2-fluoro-4-(trifluoromethyl)phenyl)-4-methyl-pyrimidin-2-amine]	207
Cc1nc(NCC2CCC(C)N2C)ncc1-c1ccc(C(F)(F)F)cc1F (single isomer, unassigned) [Example 138b, N-(((2*S,5*S)-1,5-dimethylpyrrolidin-2-yl)methyl)-5-(2-fluoro-4-(trifluoromethyl)phenyl)-4-methyl-pyrimidin-2-amine]	85
Cc1nc(NCC2CCC(C)N2C)ncc1-c1ccc(C(F)(F)F)cc1F (single isomer, unassigned) [Example 138c, N-(((2*R,5*S)-1,5-dimethylpyrrolidin-2-yl)methyl)-5-(2-fluoro-4-(trifluoromethyl)phenyl)-4-methyl-pyrimidin-2-amine]	69
Cc1nc(NCC2CCC(C)N2C)ncc1-c1ccc(C(F)(F)F)cc1F (single isomer, unassigned) [Example 138d, N-(((2*S,5*R)-1,5-dimethylpyrrolidin-2-yl)methyl)-5-(2-fluoro-4-(trifluoromethyl)phenyl)-4-methyl-pyrimidin-2-amine]	25
